Results taken from patent publication US20130324489A1, “NEW ANTIFUNGAL COMPOSITIONS” (DSM IP ASSETS B.V., priority 2011, published 2013).

Assays:
Botrytis cinerea = assay: In vitro antifungal activity, 96-well microtiter plates; type: cell-based; conditions: 1.25 ppm natamycin, 25° C.
Experimental: The following compositions were tested: […] After incubation of the microtiter plates at 25° C., the in vitro antifungal activity (%) of the individual active ingredients was assessed by calculating the reduction in mould growth observed in the presence of the active ingredient in comparison to the mould growth observed in the absence of the active ingredient. The expected antifungal activity (E in %) of the active ingredient combination was calculated according to the Colby equation (Colby, 1967): […] wherein X and Y are the observed antifungal activities (in %) of the individual active ingredients X and Y, respectively.

Penicillium italicum = assay: as above; type: cell-based; conditions: 0.63 ppm natamycin, 5.0 ppm vinclozolin, 10 ppm procymidone, alone or natamycin + one of them, 25° C., day 3
Experimental: Subsequently, 100 μl of a Botrytis cinerea suspension prepared in PCB medium was used to inoculated each well with 2.5×10^3 spores/ml.
After incubation of the microtiter plates at 25° C., the in vitro antifungal activity (%) of the individual active ingredients was assessed by calculating the reduction in mould growth observed in the presence of the active ingredient in comparison to the mould growth observed in the absence of the active ingredient. The expected antifungal activity (E in %) of the active ingredient combination was calculated according to the Colby equation (Colby, 1967): […]
wherein X and Y are the observed antifungal activities (in %) of the individual active ingredients X and Y, respectively. If the observed antifungal activity (O in %) of the combination exceeds the expected antifungal activity (E in %) of the combination and the resulting synergy factor O/E is thus >1.0, the combined application of the active ingredients leads to a synergistic antifungal effect.
The experiment was conducted as described in Example 10, except for the fact that the following compositions were tested:
Furthermore, Penicillium italicum was used for inoculation. The antifungal activity (in %) of the individual and combined active ingredients was determined according to the method described in Example 10.

Question: What does the source list for `CC(C)NC(=O)N1CC(=O)N(c2cc(Cl)cc(Cl)c2)C1=O` [Iprodione, iprodione]?
Answer: Observed antifungal activity O (%) (Botrytis cinerea; 3.0 ppm iprodione or both, day 5): 50%; Observed antifungal activity O (%) (Botrytis cinerea; 8.0 ppm iprodione or both, day 12): 50%

Question: For `C=CC1(C)OC(=O)N(c2cc(Cl)cc(Cl)c2)C1=O` (stereo not drawn) [Vinclozolin, vinclozolin], which “Observed antifungal activity O (%)” value (Botrytis cinerea; 1.5 ppm vinclozolin, 1.25 ppm procymidone, alone or natamycin + one of them, day 3) is on record?
Answer: 0%

Question: What about the “Observed antifungal activity O (%)” value (Botrytis cinerea; 1.5 ppm vinclozolin, 1.25 ppm procymidone, alone or natamycin + one of them, day 6) of the same compound?
Answer: 0%

Question: What about the “Observed antifungal activity O (%)” value (Botrytis cinerea; 7.0 ppm vinclozolin, 2.0 ppm procymidone, alone or natamycin + one of them, day 10) of the same compound?
Answer: 0%

Question: What about the “Observed antifungal activity O (%)” value (Penicillium italicum) of the same compound?
Answer: 0%
